How the values were obtained:
[1] = system: PDE1; assay: Inhibition of PDE1 activity, two-step procedure; format: biochemical; conditions: homogenate of guinea pig lungs or hearts
Method: (§1) Activities of PDE1~5 in the homogenate of guinea pig lungs or hearts were measured by a two-step procedure according to the previous method, using cAMP with [^3H]-cAMP or cGMP with [^3H]-cGMP as substrates. […] The reagents and homogenate were mixed on ice, and the reaction was initiated by transferring the mixture to a water bath at 37°C. Following a 30-min incubation, the reaction was stopped by transferring the reaction vessel to a bath of boiling water for 3 min. After cooling on ice, 20 μl of a 1 mg/ml solution of Crotalus atrox snake venom was added to the reaction mixture, and the mixture was incubated at 37°C for 10 min. Unreacted [^3H]-cAMP or [^3H]-cGMP was removed by the addition of 500 μl of a 1-in-1 Tris-HCl (40 mM) buffer suspension of Dowex resin (1 × 8-200) with incubation on ice for 30 min. Each tube was then centrifuged at 3700 g for 2 min, and 150 μl of the supernatant was removed for liquid scintillation counting. […] The total protein in each fraction used was assayed according to a previous method. PDE activities are reported as nmol/mg/min.

[2] = cited from earlier work
[3] = system: duration of xylazine/ketamine-induced anesthesia; assay: Xylazine/ketamine-induced anesthesia; conditions: 0.25 h before anesthesia
Method: After loss of the righting reflex (i.e., when a mouse remained on its back and no longer spontaneously righted itself to a prone position), the duration of anesthesia was measured until its return as the endpoint.

[4] = system: PDE4H; conditions: cited from earlier work
[5] = system: xylazine/ketamine-induced anesthesia; design: method as in PMID 11786486; conditions: rats; cited from earlier work
[6] = system: emesis; design: method as in PMID 11114405; conditions: ferrets; cited from earlier work
[7] = system: PDE4L; conditions: cited from earlier work
[8] = system: PDE4; assay: Inhibition of PDE4 activity, two-step procedure and Lineweaver-Burk analysis; format: biochemical, guinea pig
Method: as §1

[9] = system: high-affinity rolipram-binding sites (HARBSs) of guinea pig brain cell membranes; assay: Displacement of 2 nM [3H]-rolipram from high-affinity rolipram-binding sites (PDE4H); conditions: 2 nM [3H]-rolipram, 30°C, 1 h; read-out: EC50 (PDE4H) for displacing [3H]-rolipram binding
Method: When the above-mentioned guinea pigs were sacrificed, the whole brains were removed and homogenized with a glass/Teflon homogenizer (Glas-Col, Terre Haute, IN, USA) in 10 volumes of cold medium (pH 6.5) containing 20 mM Bis-Tris, 2 mM benzamidine, 2 mM EDTA, 50 mM sodium chloride, 0.1 mM PMSF, and 1 mM dithiothreitol. At 4°C, the homogenate was centrifuged at 170 g for 5 min to remove connective tissues and blood vessels. The suspended homogenate was then re-centrifuged at 40,000 g for 30 min to separate the cytosolic and particulate portions. The particulate portion was re-suspended in a suspension at a concentration of 400 mg/ml (wet weight/volume), after washing three times with homogenizing buffer. The particulate portion mainly consisted of cell membranes. […] Briefly, the reaction buffer consisted of 50 mM Tris-HCl and 5 mM MgCl2 (pH 7.5). […] After 1 h, the reaction was terminated by moving the reaction vessel into crushed ice. Then the reaction mixture was transferred onto Whatman GF/B glass-fiber filters, which were soaked in a 0.3% polyethyleneimine solution in a mini-funnel.

[10] = system: PDE3; assay: Inhibition of PDE3 activity, two-step procedure; format: biochemical; conditions: homogenate of guinea pig lungs or hearts
Method: as §1

[11] = system: ovalbumin-induced airway inflammation; design: method as in PMID 21287361; conditions: compared with the ovalbumin-induced group; H&E and alcian blue-PAS staining; cited from earlier work
[12] = system: PDE4 subtypes (A~D); design: method as in PMID 16458289; conditions: cited from earlier work
[13] = system: PDE4; design: method as in PMID 15476679; conditions: cited from earlier work

Compound: CCOC(=O)C1=C[C@]2(CC)CCCN3CCc4c(n1c1ccccc41)[C@@H]32 [vinpocetin, Vinpocetine, reference compound]
- IC50 [1]: 42.3 ± 5.8 µM

Compound: COc1cccc(Nc2c(C(N)=O)cnc3c(C)cc(S(=O)(=O)c4cccc(C(=O)N(C)C)c4)cc23)c1 [GSK256066]
- efficacy in trials in asthma ([2]; inhaled): demonstrated efficacy

Compound: CCOc1cc([C@@H](CS(C)(=O)=O)N2C(=O)c3cccc(NC(C)=O)c3C2=O)ccc1OC [apremilast]
- efficacy in severe plaque-type psoriasis ([2]; oral): effective

Compound: COc1ccc(C2CNC(=O)C2)cc1OC1CCCC1 (centres unmarked) [Rolipram, rolipram]
- effect on duration of xylazine/ketamine-induced anesthesia ([3]; 0.01~1 μmol/kg s.c.): dose-dependently shortened
- effect on duration of xylazine/ketamine-induced anesthesia ([3]; 0.01~1 μmol/kg s.c., listed as rolipram): reversed the anesthesia
- effect on duration of xylazine/ketamine-induced anesthesia ([3]; 0.1 and 1 μmol/kg s.c.): significantly shortened
- PDE4H/PDE4L ratio [4]: 0.01~0.001

Compound: CN1CC[C@]2(CCN3CCc4c(oc5ccccc45)[C@@H]3C2)N(C)C1=O.Cl [MK-912]
- effect on xylazine/ketamine-induced anesthesia [5]: reverse xylazine/ketamine-induced anesthesia
- vomiting [6]: trigger vomiting

Compound: Clc1cccc(Cl)c1N=C1NCCN1 [clonidine]
- effect on emesis induced by PDE4 inhibitors [6]: prevented emesis

Compound: O=C(Nc1c(Cl)cncc1Cl)C(=O)c1cn(Cc2ccc(F)cc2)c2ccc(O)cc12 [AWD 12-281, N-(3,5-dichloro-pyrid-4-yl)-[1-(4-fluorobenzyl)-5-hydroxy-indole-3-yl]-glyoxylic acid amide]
- PDE4H value [4]: 104 nM
- PDE4H/PDE4L ratio [4]: approximately 11
- PDE4L value [7]: 9.7 nM
- efficacy in clinical trials for asthma and COPD [2]: lack of efficacy

Compound: CCCCOc1cc(CC2CNC(=O)N2)ccc1OC (centres unmarked) [Ro 20-1724, 4-(3-butoxy-4-methoxybenzyl)-2-imidazolidinone, reference compound]
- mode of PDE4 inhibition ([8]; Lineweaver-Burk analysis, inhibitor 1~10 μM): competitively inhibited
- Ki ([8]; Lineweaver-Burk analysis, inhibitor 1~10 μM, substrate cAMP, read-out: dissociation constant for inhibitory binding (Ki), PDE4): 8.1 ± 2.4 µM
- IC50 ([8]; homogenate of guinea pig lungs or hearts): 4.3 ± 2.1 µM
- EC50 [9]: 0.087 ± 0.029 µM

Compound: Cc1[nH]c(=O)c(C#N)cc1-c1ccncc1 [milrinone, reference compound]
- IC50 [10]: 2.5 ± 1.6 µM

Compound: COc1ccc([C@@H]2CC(=O)c3c(O)cc(O[C@@H]4O[C@H](CO[C@@H]5O[C@@H](C)[C@H](O)[C@@H](O)[C@H]5O)[C@@H](O)[C@H](O)[C@H]4O)cc3O2)cc1O [hesperidin]
- effect on inflammatory cell infiltration and mucus hypersecretion in lung [11]: inhibit inflammatory cell infiltration and mucus hypersecretion

Compound: O=C(Nc1c(Cl)cncc1Cl)c1ccc(OC(F)F)c(OCC2CC2)c1 [roflumilast]
- PDE4H value [4]: 2.4 nM
- PDE4H/PDE4L ratio [4]: 3
- PDE4L value [7]: 0.8 nM
- selectivity among PDE4 subtypes [12]: non-selective for these four PDE4 subtypes
- mean pre- and post-bronchodilator FEV1 ([2]; patients with moderate-to-severe COPD, compared to placebo): significantly improve
- nausea, diarrhea, weight loss, and headaches ([2]; patients with moderate-to-severe COPD): more frequent

Compound: COc1ccc(C2CC(=O)c3c(O)cc(O)cc3O2)cc1O (centres unmarked) [hesperetin, 5,7,3'-trihydroxy-4'-methoxyflavanone]
- selectivity of PDE inhibition [13]: selectively inhibit PDE4 activity

Compound: COc1ccc([C@]2(C#N)CC[C@@H](C(=O)O)CC2)cc1OC1CCCC1 [cilomilast]
- PDE4H value [4]: 117.8 nM
- PDE4H/PDE4L ratio [4]: 1
- PDE4L value [7]: 120 nM
- selectivity among PDE4 subtypes [12]: higher potency for PDE4D compared to PDE4A and PDE4B
- tolerability: diarrhea and nausea ([2]; COPD phase III study, 15 mg twice daily over 6 months): higher frequencies of diarrhea and nausea than a placebo
